Assay [1] concerns DAPI. In words: triacylglycerol accumulation inhibitor potency, dose response, cell-based, panel, Nile Red and DAPI fluorescence, H9c2 (AID 651630).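 Note: cells exposed to compound overnight before fixation and staining.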 As to conditions: H9c2 cells, DAPI nuclear fluorescence (cytotoxicity counter-readout), oleic acid.
The test system of assay [2] is TAG. The assay is described as above. As to conditions: H9c2 cells, Nile Red TAG fluorescence, oleic acid.

A word on the IC50: it is the midpoint of a concentration-inhibition curve.

Active and inactive are the calls of the source.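 Rule for the calls: active = lipid-stain IC50 at or below a set limit, with nuclear-stain toxicity IC50 at least five times higher; inactive = the rest.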 A value given as a limit tells only on which side of the number the result lay.

With `CC1CCN(c2cc(N3CCC(C)CC3)c([N+](=O)[O-])cc2/C=C(\C#N)c2nn(-c3ccccc3)c(N)c2C#N)CC1`, the IC50 cytotoxicity (DAPI nuclear signal decrease) was > 25 µM (inactive) in assay [1] (mean of runs), > 25 µM in assay [1] (run 1) and > 25 µM in assay [1] (run 2). For the same compound, the IC50 in assay [2] (mean of runs) is > 25 µM (inactive); in assay [2] (run 1), > 25 µM; in assay [2] (run 2), > 25 µM.
Regarding `Cc1ccc(NC(=O)c2cc([N+](=O)[O-])ccc2NCc2cccnc2)cc1Cl`, the results for the IC50 cytotoxicity (DAPI nuclear signal decrease) in assay [1] (mean of runs), in assay [1] (run 1) and in assay [1] (run 2) were > 25 µM (inactive), > 25 µM and > 25 µM, respectively. Moreover, the values for the IC50 in assay [2] (mean of runs), in assay [2] (run 1) and in assay [2] (run 2) were 14 µM, 10.5 µM and 17.6 µM, respectively.
Consider `CCCCOc1ccccc1C1CC(=O)NC2=C1C(=O)CCC2` (stereo unspecified), for which the IC50 cytotoxicity (DAPI nuclear signal decrease) in assay [1] (mean of runs) is > 25 µM (inactive); in assay [1] (run 1), > 25 µM; in assay [1] (run 2) it was > 25 µM. The results for the IC50 in assay [2] (mean of runs), in assay [2] (run 1) and in assay [2] (run 2) were 15.9 µM (inactive), 9.56 µM and 22.3 µM, respectively.
Regarding `COc1ccc(-c2cc3nc(-c4ccccc4)cc(N4CCN(C(=O)c5ccccc5)CC4)n3n2)cc1`, the IC50 cytotoxicity (DAPI nuclear signal decrease) is > 25 µM (inactive) in assay [1] (mean of runs), > 25 µM in assay [1] (run 1) and > 25 µM in assay [1] (run 2). Besides, the IC50 is > 25 µM (inactive) in assay [2] (mean of runs), > 25 µM in assay [2] (run 1) and > 25 µM in assay [2] (run 2).
Turning to `COC(=O)C1=C(C)N(Cc2ccccc2)C(=NCc2ccccc2)N[C@H]1c1ccccc1`, the values for the IC50 cytotoxicity (DAPI nuclear signal decrease) in assay [1] (run 1) and in assay [1] (run 2) were > 25 µM and 18.2 µM, respectively. For the same compound, the IC50 in assay [2] (mean of runs) is > 25 µM (inactive); in assay [2] (run 1), > 25 µM; in assay [2] (run 2) it was > 25 µM.
For `CCOC(=O)c1cc(CC)sc1NC(=O)c1cc([N+](=O)[O-])ccc1N1CCOCC1`, the IC50 cytotoxicity (DAPI nuclear signal decrease) is > 25 µM (inactive) in assay [1] (mean of runs), > 25 µM in assay [1] (run 1) and > 25 µM in assay [1] (run 2). Further, the IC50 is > 25 µM (inactive) in assay [2] (mean of runs), > 25 µM in assay [2] (run 1) and > 25 µM in assay [2] (run 2).
Regarding `CC(C)C[C@@H](CNC(=O)OC(C)(C)C)NC(=O)c1nc[nH]c1C(=O)N[C@@H](CC(C)C)C(=O)CNC[C@H](CC(C)C)NC(=O)c1nc[nH]c1C(=O)N[C@@H](Cc1c[nH]c2ccccc12)C(=O)OC(C)(C)C`, the IC50 cytotoxicity (DAPI nuclear signal decrease) in assay [1] (mean of runs) was > 25 µM (inactive); in assay [1] (run 1), > 25 µM; in assay [1] (run 2), > 25 µM. Besides, the values for the IC50 in assay [2] (mean of runs), in assay [2] (run 1) and in assay [2] (run 2) were 5.5 µM, 4.49 µM and 6.51 µM, respectively.
On to `COc1ccc(-c2cnc3c(NC=O)cc(-c4cccc(NS(C)(=O)=O)c4)cn23)cc1OC`, for which the IC50 cytotoxicity (DAPI nuclear signal decrease) in assay [1] (mean of runs) is 21.6 µM (inactive); in assay [1] (run 1), 20.1 µM; in assay [1] (run 2), 23 µM. Further, the values for the IC50 in assay [2] (mean of runs), in assay [2] (run 1) and in assay [2] (run 2) were 13.1 µM, 12.8 µM and 13.3 µM, respectively.
`O=C(Nc1ccc(-c2csc(Nc3ccc(Cl)cc3)n2)cc1)c1cc([N+](=O)[O-])cc(C(F)(F)F)c1`: the IC50 cytotoxicity (DAPI nuclear signal decrease) is > 25 µM (inactive) in assay [1] (mean of runs), > 25 µM in assay [1] (run 1) and > 25 µM in assay [1] (run 2). For the same compound, the IC50 in assay [2] (mean of runs) was 8.54 µM; in assay [2] (run 1) it was 6.55 µM; in assay [2] (run 2) it was 10.5 µM.
Consider `COc1ccc(C2NCCc3c2[nH]c2ccccc32)cc1CSc1nc2ccccc2s1` (stereo unspecified), for which the IC50 cytotoxicity (DAPI nuclear signal decrease) is > 25 µM in assay [1] (run 1) and 24.6 µM in assay [1] (run 2). The results for the IC50 in assay [2] (mean of runs), in assay [2] (run 1) and in assay [2] (run 2) were > 25 µM (inactive), > 25 µM and > 25 µM, respectively.
`CCCOc1ccc(F)cc1-c1cc(C(=O)NCc2cc(OC)cc(OC)c2)[nH]n1`: the IC50 cytotoxicity (DAPI nuclear signal decrease) in assay [1] (mean of runs) is > 25 µM (inactive); in assay [1] (run 1), > 25 µM; in assay [1] (run 2), > 25 µM. Moreover, the IC50 was 10.1 µM in assay [2] (mean of runs), 10.8 µM in assay [2] (run 1) and 9.39 µM in assay [2] (run 2).
For the compound `Cc1ccc2oc(NC3=NC4(CCCC4)C4=C(CCCC4=O)N3)nc2c1`, the IC50 cytotoxicity (DAPI nuclear signal decrease) in assay [1] (mean of runs) is > 25 µM (inactive); in assay [1] (run 1) it was > 25 µM; in assay [1] (run 2) it was > 25 µM. Also, the IC50 in assay [2] (mean of runs) was 7.66 µM; in assay [2] (run 1), 8.73 µM; in assay [2] (run 2), 6.6 µM.
Regarding `COc1cc(-c2noc(C)c2C#Cc2ccc(N)cc2)cc(OC)c1OC`, the figures for the IC50 cytotoxicity (DAPI nuclear signal decrease) in assay [1] (mean of runs), in assay [1] (run 1) and in assay [1] (run 2) were > 25 µM (inactive), > 25 µM and > 25 µM, respectively. For the same compound, the IC50 in assay [2] (run 1) is > 25 µM; in assay [2] (run 2), 8.23 µM.
On to `Cc1cc(N/N=C/c2ccc(F)cc2)nc(-n2nc(C)cc2C)n1`, for which the IC50 cytotoxicity (DAPI nuclear signal decrease) in assay [1] (mean of runs) was > 25 µM (inactive); in assay [1] (run 1), > 25 µM; in assay [1] (run 2), > 25 µM. Further, the IC50 was > 25 µM (inactive) in assay [2] (mean of runs), > 25 µM in assay [2] (run 1) and > 25 µM in assay [2] (run 2).
As to `COc1cc(C#Cc2c(-c3cncn3C)n(C)c3ccc(-c4ccc(OC)c(OC)c4)cc23)cc(OC)c1`, the IC50 cytotoxicity (DAPI nuclear signal decrease) in assay [1] (mean of runs) was > 25 µM (inactive); in assay [1] (run 1) it was > 25 µM; in assay [1] (run 2) it was > 25 µM. Further, the IC50 in assay [2] (mean of runs) was 8.76 µM; in assay [2] (run 1), 8.47 µM; in assay [2] (run 2) it was 9.05 µM.
For `CCCCCc1cc(=O)oc2c(C(CCN3CCN(c4ccccc4)CC3)c3ccc(N(C)C)cc3)c(OC)cc(OC)c12` (stereo unspecified), the figures for the IC50 cytotoxicity (DAPI nuclear signal decrease) in assay [1] (mean of runs), in assay [1] (run 1) and in assay [1] (run 2) were > 25 µM (inactive), > 25 µM and > 25 µM, respectively. Moreover, the IC50 in assay [2] (mean of runs) was 12.2 µM; in assay [2] (run 1), 11.2 µM; in assay [2] (run 2), 13.2 µM.
Consider `COc1ccc2sc(-c3ccc(N(C)C)cc3)c(C#CCCO)c2c1`, for which the IC50 cytotoxicity (DAPI nuclear signal decrease) in assay [1] (mean of runs) is > 25 µM (inactive); in assay [1] (run 1), > 25 µM; in assay [1] (run 2), > 25 µM. Besides, the IC50 is 8.86 µM in assay [2] (mean of runs), 7.52 µM in assay [2] (run 1) and 10.2 µM in assay [2] (run 2).
On to `COC(=O)Nc1nc2ccc(SC(C)C)cc2[nH]1`, for which the IC50 cytotoxicity (DAPI nuclear signal decrease) was > 25 µM (inactive) in assay [1] (mean of runs), > 25 µM in assay [1] (run 1) and > 25 µM in assay [1] (run 2). Moreover, the IC50 in assay [2] (run 1) was > 25 µM; in assay [2] (run 2), 13.9 µM.
`COc1cc2c(cc1OC)C(C)N(C(=O)c1cc3c(C)cc(C)cc3[nH]1)CC2` (stereo unspecified): the IC50 cytotoxicity (DAPI nuclear signal decrease) is > 25 µM (inactive) in assay [1] (mean of runs), > 25 µM in assay [1] (run 1) and > 25 µM in assay [1] (run 2). Also, the IC50 in assay [2] (mean of runs) was 9.16 µM; in assay [2] (run 1), 9.59 µM; in assay [2] (run 2) it was 8.73 µM.
For the compound `CCOC(=O)N1CCN(C(=O)c2ccccc2N(Cc2ccccc2)S(=O)(=O)c2ccc(OC)cc2)CC1`, the IC50 cytotoxicity (DAPI nuclear signal decrease) in assay [1] (mean of runs) is > 25 µM (inactive); in assay [1] (run 1) it was > 25 µM; in assay [1] (run 2) it was > 25 µM. In addition, the IC50 in assay [2] (mean of runs) was 19.9 µM (inactive); in assay [2] (run 1), 24.3 µM; in assay [2] (run 2), 15.5 µM.
For the compound `COc1cc(/C=C2/NC(=O)N(Cc3ccccc3F)C2=O)ccc1O`, the IC50 cytotoxicity (DAPI nuclear signal decrease) was > 25 µM (inactive) in assay [1] (mean of runs), > 25 µM in assay [1] (run 1) and > 25 µM in assay [1] (run 2). Also, the IC50 was > 25 µM (inactive) in assay [2] (mean of runs), > 25 µM in assay [2] (run 1) and > 25 µM in assay [2] (run 2).
Take `CC(=O)OC12COC1CC(O)C1(C)C(=O)C(O)C3=C(C)C(O)CC(O)(C(OC(=O)c4ccccc4)C21)C3(C)C` (stereo unspecified): the IC50 cytotoxicity (DAPI nuclear signal decrease) in assay [1] (mean of runs) is > 25 µM (inactive); in assay [1] (run 1), > 25 µM; in assay [1] (run 2), > 25 µM. Further, the IC50 in assay [2] (mean of runs) was 9.4 µM; in assay [2] (run 1) it was 9.73 µM; in assay [2] (run 2) it was 9.07 µM.
For `CC(C)(C)NC(=O)C(c1ccc(-c2ccccc2)cc1)N(C[C@H]1CC[C@@H]([C@@H]2CC[C@H](CO)O2)O1)C(=O)c1ccc2ccccc2c1` (stereo partly specified), the IC50 cytotoxicity (DAPI nuclear signal decrease) in assay [1] (mean of runs) was > 25 µM (inactive); in assay [1] (run 1), > 25 µM; in assay [1] (run 2), > 25 µM. Moreover, the IC50 in assay [2] (mean of runs) is 5.56 µM; in assay [2] (run 1), 4.96 µM; in assay [2] (run 2), 6.16 µM.
Turning to `CCCCCCCCn1c(N2CCN(c3cccc(Cl)c3)CC2)nc2c1c(=O)[nH]c(=O)n2C`, the IC50 cytotoxicity (DAPI nuclear signal decrease) was > 25 µM (inactive) in assay [1] (mean of runs), > 25 µM in assay [1] (run 1) and > 25 µM in assay [1] (run 2). Moreover, the IC50 in assay [2] (mean of runs) is > 25 µM (inactive); in assay [2] (run 1) it was > 25 µM; in assay [2] (run 2), > 25 µM.
Turning to `O=C(NCc1nnnn1-c1ccc(F)cc1)c1ccc([N+](=O)[O-])o1`, the IC50 cytotoxicity (DAPI nuclear signal decrease) was 11.8 µM (inactive) in assay [1] (mean of runs), 11.8 µM in assay [1] (run 1) and 11.9 µM in assay [1] (run 2). The IC50 in assay [2] (mean of runs) is 18.9 µM (inactive); in assay [2] (run 1), 21.7 µM; in assay [2] (run 2), 16 µM.

The values above are taken from PubChem BioAssay AID651630 (Sanford-Burnham Center for Chemical Genomics, 2012).
